Converted amounts (≈) assume the structure as drawn.
Key:
Assay in all cases: Antibacterial test (MIC), The Japan Chemotherapeutic Association method
[1] = tested on: M. R. Staphylococcus aureus 395; format: cell-based, Methicillin-resistant Staphylococcus aureus; details: M. R. Staphylococcus aureus 395 (MRSA); Mueller Hinton Medium, 10^6 /ml, 37° C., determined after 24 hours
Experimental: (§1) Antibacterial activities against microorganisms shown in Tables 1-3 were measured according to the MIC measurement method of The Japan Chemotherapeutic Association. Sparfloxacin was used as a control agent.
(§2) Medium: Mueller Hinton Medium
(§3) A 1,000 micrograms/ml solution in 25% dimethylsulfoxide was prepared. A series of solutions with various concentrations (100 micrograms to 0.006 micrograms) were prepared by successively diluting the solution with sterilized water by a factor of 1/2.
(§4) Amount of inoculated bacteria: 10^6 /ml
(§5) Cultivation conditions: 37° C., 48 hours
(§6) Determination: After 24 hours.

[2] = tested on: M. R. Staphylococcus aureus 420; format: cell-based, Methicillin-resistant Staphylococcus aureus; details: M. R. Staphylococcus aureus 420 (MRSA); Mueller Hinton Medium, 10^6 /ml, 37° C., determined after 24 hours
Experimental: as §1, §2, §3, §4, §5, §6

[3] = tested on: M. R. Staphylococcus aureus 419; format: cell-based, Methicillin-resistant Staphylococcus aureus; details: M. R. Staphylococcus aureus 419 (MRSA); Mueller Hinton Medium, 10^6 /ml, 37° C., determined after 24 hours
Experimental: as §1, §2, §3, §4, §5, §6

[4] = tested on: M. R. Staphylococcus aureus 415; format: cell-based, Methicillin-resistant Staphylococcus aureus; details: M. R. Staphylococcus aureus 415 (MRSA); Mueller Hinton Medium, 10^6 /ml, 37° C., determined after 24 hours
Experimental: as §1, §2, §3, §4, §5, §6

[5] = tested on: M. R. Staphylococcus aureus 421; format: cell-based, Methicillin-resistant Staphylococcus aureus; details: M. R. Staphylococcus aureus 421 (MRSA); Mueller Hinton Medium, 10^6 /ml, 37° C., determined after 24 hours
Experimental: as §1, §2, §3, §4, §5, §6

[6] = tested on: Pseudomonas aeruginosa P2; format: cell-based; details: Mueller Hinton Medium, 10^6 /ml, 37° C., determined after 24 hours
Experimental: as §1, §2, §3, §4, §5, §6

Serratia marcescens NHL = format: cell-based; details: Mueller Hinton Medium, 10^6 /ml, 37° C., determined after 24 hours
Experimental: as §1, §2, §3, §4, §5, §6

Escherichia coli O-1 = format: cell-based; details: O1, Mueller Hinton Medium, 10^6 /ml, 37° C., determined after 24 hours
Experimental: as §1, §2, §3, §4, §5, §6

Shigella flexneri 2b = format: cell-based; details: Mueller Hinton Medium, 10^6 /ml, 37° C., determined after 24 hours
Experimental: as §1, §2, §3, §4, §5, §6

[7] = tested on: Klebsiella pneumoniae ATCC 10031; format: cell-based; details: ATCC10031, Mueller Hinton Medium, 10^6 /ml, 37° C., determined after 24 hours
Experimental: as §1, §2, §3, §4, §5, §6

Proteus rettgeri = format: cell-based; details: Providencia rettgeri, Mueller Hinton Medium, 10^6 /ml, 37° C., determined after 24 hours
Experimental: as §1, §2, §3, §4, §5, §6

[8] = tested on: Pseudomonas aeruginosa IFO 13736; format: cell-based; details: IFO13736, Mueller Hinton Medium, 10^6 /ml, 37° C., determined after 24 hours
Experimental: as §1, §2, §3, §4, §5, §6

[9] = tested on: Pseudomonas aeruginosa IFO 12582; format: cell-based; details: IFO12582, Mueller Hinton Medium, 10^6 /ml, 37° C., determined after 24 hours
Experimental: as §1, §2, §3, §4, §5, §6

[10] = tested on: Staphylococcus aureus Terashima; format: cell-based; details: Mueller Hinton Medium, 10^6 /ml, 37° C., determined after 24 hours
Experimental: as §1, §2, §3, §4, §5, §6

Escherichia coli K-12 = format: cell-based; details: K12, Mueller Hinton Medium, 10^6 /ml, 37° C., determined after 24 hours
Experimental: as §1, §2, §3, §4, §5, §6

Proteus vulgaris OXK = format: cell-based; details: Mueller Hinton Medium, 10^6 /ml, 37° C., determined after 24 hours
Experimental: as §1, §2, §3, §4, §5, §6

[11] = tested on: Micrococcus lysodeikticus IFO 3333; format: cell-based; details: Micrococcus luteus, IFO3333, Mueller Hinton Medium, 10^6 /ml, 37° C., determined after 24 hours
Experimental: as §1, §2, §3, §4, §5, §6

[12] = tested on: Staphylococcus epidermidis ATCC 12228; format: cell-based; details: ATCC12228, Mueller Hinton Medium, 10^6 /ml, 37° C., determined after 24 hours
Experimental: as §1, §2, §3, §4, §5, §6

Salmonella typhi TD = format: cell-based; details: Salmonella enterica, 24 h
Experimental: as §1, §2, §3, §4, §5, §6

Sarcina lutea ATCC 9341 = format: cell-based; details: Micrococcus luteus, ATCC9341, Mueller Hinton Medium, 10^6 /ml, 37° C., determined after 24 hours
Experimental: as §1, §2, §3, §4, §5, §6

[13] = tested on: Streptococcus faecalis IFO 12964; format: cell-based; details: Enterococcus faecalis, IFO12964, Mueller Hinton Medium, 10^6 /ml, 37° C., determined after 24 hours
Experimental: as §1, §2, §3, §4, §5, §6

[14] = tested on: Klebsiella pneumoniae IFO 13541; format: cell-based; details: IFO13541, Mueller Hinton Medium, 10^6 /ml, 37° C., determined after 24 hours
Experimental: as §1, §2, §3, §4, §5, §6

[15] = tested on: Staphylococcus aureus FDA 209P; format: cell-based; details: FDA209P, Mueller Hinton Medium, 10^6 /ml, 37° C., determined after 24 hours
Experimental: as §1, §2, §3, §4, §5, §6

[16] = tested on: Staphylococcus aureus Smith; format: cell-based; details: Mueller Hinton Medium, 10^6 /ml, 37° C., determined after 24 hours
Experimental: as §1, §2, §3, §4, §5, §6

[17] = tested on: Bacillus subtilis ATCC 6633; format: cell-based; details: ATCC6633, Mueller Hinton Medium, 10^6 /ml, 37° C., determined after 24 hours
Experimental: as §1, §2, §3, §4, §5, §6

| SMILES | MIC [1] | MIC [2] | MIC [3] | MIC [4] | MIC [5] | MIC [6] | MIC (Serratia marcescens NHL) | MIC (Escherichia coli O-1) | MIC (Shigella flexneri 2b) | MIC [7] | MIC (Proteus rettgeri) | MIC [8] | MIC [9] | MIC [10] | MIC (Escherichia coli K-12) | MIC (Proteus vulgaris OXK) | MIC [11] | MIC [12] | MIC (Salmonella typhi TD) | MIC (Sarcina lutea ATCC 9341) | further results |
| --- | --- | --- | --- | --- | --- | --- | --- | --- | --- | --- | --- | --- | --- | --- | --- | --- | --- | --- | --- | --- | --- |
| C[C@@H]1CN(c2c(F)c(N)c3c(=O)c(C(=O)O)cn(C4CC4)c3c2F)C[C@H](C)N1 [Spafloxacin, reference compound] | 0.1 µg/mL (≈ 0.255 µM) | 0.1 µg/mL (≈ 0.255 µM) | 0.05 µg/mL (≈ 0.127 µM) | 0.05 µg/mL (≈ 0.127 µM) | 0.05 µg/mL (≈ 0.127 µM) | 1.56 µg/mL (≈ 3.98 µM) | 0.2 µg/mL (≈ 0.51 µM) | 0.012 µg/mL (≈ 0.0306 µM) | 0.006 µg/mL (≈ 0.0153 µM) | 0.006 µg/mL (≈ 0.0153 µM) | 0.1 µg/mL (≈ 0.255 µM) | 0.78 µg/mL (≈ 1.99 µM) | 1.56 µg/mL (≈ 3.98 µM) | 0.1 µg/mL (≈ 0.255 µM) | 0.012 µg/mL (≈ 0.0306 µM) | 0.05 µg/mL (≈ 0.127 µM) | 0.39 µg/mL (≈ 0.994 µM) | 0.2 µg/mL (≈ 0.51 µM) | 0.006 µg/mL (≈ 0.0153 µM) | 1.56 µg/mL (≈ 3.98 µM) | MIC [13]: 0.39 µg/mL (≈ 0.994 µM); MIC [14]: 0.012 µg/mL (≈ 0.0306 µM); MIC [15]: 0.024 µg/mL (≈ 0.0612 µM); MIC [16]: 0.05 µg/mL (≈ 0.127 µM); MIC [17]: 0.024 µg/mL (≈ 0.0612 µM) |
| CN1CCN(c2c(F)c(N)c3c(=O)c(C(=O)O)cn(C4CC4)c3c2F)CCC1=O [1-8, 5-Amino-1-cyclopropyl-6,8-difluoro-7-(4-methyl-2,3,4,5,6,7-hexahydro-1H-1,4-diazepin-5-on-1-yl)-1,4-dihydro-4-oxoquinoline-3-carboxylic acid] | 0.05 µg/mL (≈ 0.123 µM) | 0.05 µg/mL (≈ 0.123 µM) | 0.024 µg/mL (≈ 0.0591 µM) | 0.024 µg/mL (≈ 0.0591 µM) | 0.024 µg/mL (≈ 0.0591 µM) | 12.5 µg/mL (≈ 30.8 µM) | 1.56 µg/mL (≈ 3.84 µM) | 0.1 µg/mL (≈ 0.246 µM) | 0.006 µg/mL (≈ 0.0148 µM) | 0.006 µg/mL (≈ 0.0148 µM) | 0.39 µg/mL (≈ 0.96 µM) | 3.13 µg/mL (≈ 7.7 µM) | 6.25 µg/mL (≈ 15.4 µM) | 0.05 µg/mL (≈ 0.123 µM) | 0.1 µg/mL (≈ 0.246 µM) | 0.1 µg/mL (≈ 0.246 µM) | 0.1 µg/mL (≈ 0.246 µM) | 0.1 µg/mL (≈ 0.246 µM) | 0.1 µg/mL (≈ 0.246 µM) | 0.39 µg/mL (≈ 0.96 µM) | MIC [13]: 0.2 µg/mL (≈ 0.492 µM); MIC [14]: 0.1 µg/mL (≈ 0.246 µM); MIC [15]: 0.006 µg/mL (≈ 0.0148 µM); MIC [16]: 0.012 µg/mL (≈ 0.0295 µM); MIC [17]: 0.006 µg/mL (≈ 0.0148 µM) |
| Nc1c(F)c(N2CCNC(=O)CC2)c(F)c2c1c(=O)c(C(=O)O)cn2C1CC1 [Compound No. 1-2, 5-Amino-1-cyclopropyl-6,8-difluoro-7-(2,3,4,5,6,7-hexahydro-1H-1,4-diazepin-5-on-1-yl)-1,4-dihydro-4-oxo-quinoline-3-carboxylic acid] | 0.05 µg/mL (≈ 0.127 µM) | 0.05 µg/mL (≈ 0.127 µM) | 0.024 µg/mL (≈ 0.0612 µM) | 0.024 µg/mL (≈ 0.0612 µM) | 0.012 µg/mL (≈ 0.0306 µM) | 6.25 µg/mL (≈ 15.9 µM) | 0.78 µg/mL (≈ 1.99 µM) | 0.05 µg/mL (≈ 0.127 µM) | 0.006 µg/mL (≈ 0.0153 µM) | 0.006 µg/mL (≈ 0.0153 µM) | 0.39 µg/mL (≈ 0.994 µM) | 3.13 µg/mL (≈ 7.98 µM) | 3.13 µg/mL (≈ 7.98 µM) | 0.05 µg/mL (≈ 0.127 µM) | 0.05 µg/mL (≈ 0.127 µM) | 0.05 µg/mL (≈ 0.127 µM) | 0.05 µg/mL (≈ 0.127 µM) | 0.05 µg/mL (≈ 0.127 µM) | 0.05 µg/mL (≈ 0.127 µM) | 0.39 µg/mL (≈ 0.994 µM) | MIC [13]: 0.2 µg/mL (≈ 0.51 µM); MIC [14]: 0.05 µg/mL (≈ 0.127 µM); MIC [15]: 0.012 µg/mL (≈ 0.0306 µM); MIC [16]: 0.006 µg/mL (≈ 0.0153 µM); MIC [17]: 0.006 µg/mL (≈ 0.0153 µM) |
| Nc1c(F)c(N2CCNC(=O)CC2)c(Cl)c2c1c(=O)c(C(=O)O)cn2C1CC1 [1-10, 5-Amino-8-chloro-1-cyclopropyl-6-fluoro-7-(2,3,4,5,6,7-hexahydro-1H-1,4-diazepin-5-on-1-yl)-4-oxo-quinoline-3-carboxylic acid] | 0.024 µg/mL (≈ 0.0587 µM) | 0.012 µg/mL (≈ 0.0294 µM) | 0.024 µg/mL (≈ 0.0587 µM) | 0.012 µg/mL (≈ 0.0294 µM) | 0.024 µg/mL (≈ 0.0587 µM) | 12.5 µg/mL (≈ 30.6 µM) | 1.56 µg/mL (≈ 3.82 µM) | 0.1 µg/mL (≈ 0.245 µM) | 0.006 µg/mL (≈ 0.0147 µM) | 0.05 µg/mL (≈ 0.122 µM) | 0.78 µg/mL (≈ 1.91 µM) | 6.25 µg/mL (≈ 15.3 µM) | 3.13 µg/mL (≈ 7.66 µM) | 0.1 µg/mL (≈ 0.245 µM) | 0.1 µg/mL (≈ 0.245 µM) | 0.2 µg/mL (≈ 0.489 µM) | 0.05 µg/mL (≈ 0.122 µM) | 0.024 µg/mL (≈ 0.0587 µM) | 0.1 µg/mL (≈ 0.245 µM) | 0.2 µg/mL (≈ 0.489 µM) | MIC [13]: 0.2 µg/mL (≈ 0.489 µM); MIC [14]: 0.1 µg/mL (≈ 0.245 µM); MIC [15]: 0.012 µg/mL (≈ 0.0294 µM); MIC [16]: 0.006 µg/mL (≈ 0.0147 µM); MIC [17]: 0.012 µg/mL (≈ 0.0294 µM) |

Source: patent publication US5430028A, “5-aminoquinolone carboxylic acid derivative and antibacterial agent containing the same as active ingredient” (SS Pharmaceutical Co., Ltd., priority 1992, dated 1995)
